The values below come from patent publication US20120016010A1, “RNA Interference Mediated Inhibition of BTB and CNC Homology 1, Basic Leucine Zipper Transcription Factor 1 (BACH1) Gene Expression Using Short Interfering Nucleic Acid (siNA)” (Merck Sharp & Dohme Corp, priority 2009, published 2012).

In assay [1] the test system is cigarette smoke-induced lung destruction. Conditions: Sussan et al (2009); cited from earlier work.
For assay [2], the system named is Heme Oxygenase-1 (HO-1) protein. Kind of assay: HO-1 protein expression by Western Blot in airway epithelial cells from a COPD subject. Particulars: FIG. 13, positive controls, 18-hour treatment period. It is filed as cell-based, human. As for the experimental part: Human airway epithelial cells were obtained by bronchoscopy from a subject with COPD (35-pack years). The cells were seeded at a density of 1×10^5 cells in a 24-well plate and incubated at 37° C. and 5% CO2 overnight. […] Whole cell lysates were created to detect Heme Oxygenase-1 (HO-1) protein expression via Western Blot.
Whole cell lysates were quantified and 5 micrograms of protein per lane were loaded into a 12.5% Tris-HCL gel. A 1:5000 dilution of Anti-Human Heme Oxygenase-1 polyclonal antibody (Assay Designs) was used to detect HO-1 protein levels. The blot was stripped and reprobed with a beta actin antibody to confirm equal loading.
For orientation: Immunoblotting shows a protein as a band on a membrane.

Regarding `CC1(C)CC[C@]2(C(=O)n3ccnc3)CC[C@]3(C)[C@H](C(=O)C=C4[C@@]5(C)C=C(C#N)C(=O)C(C)(C)[C@@H]5CC[C@]43C)[C@@H]2C1` [CDDO-Im], the “lung oxidative stress markers, alveolar cell apoptosis and the subsequent lung destruction, and pulmonary hypertension” value in assay [1] is “significantly reduce”. On to `C[S+]([O-])CCCCN=C=S` (stereo not drawn) [Sulforaphane], for which, in assay [2], the HO-1 protein expression result is recorded as “increased HO-1 protein expression”. hemin: the HO-1 protein expression entry in assay [2] is reported as “increased HO-1 protein expression”.
